Measurements from patent US12121530B2, “Composition and methods for treating articulating joint disorders with nucleoside reverse transcriptase inhibitors” (RHODE ISLAND HOSPITAL, priority 2018, dated 2024).
“Also recorded” adds a separate entry of the source.

Tested on: miR-365 Tg mice
Experiment: primary OA model: miR-365 Tg mice given oral 3TC for 4 months
Assay type: in vivo, mouse
Settings: for tibial subchondral BV/TV / connectivity density of subchondral bone / trabecular number of subchondral bone / trabecular separation of subchondral bone: microCT
[1] = miR-365 Tg mice, 3TC for 4 months, RT-qPCR
[2] = miR-365 Tg mice, 3TC for four months

## Nc1ccn([C@@H]2CS[C@H](CO)O2)c(=O)n1 [3TC, lamivudine]
6-month-old miR-365 Tg mice, 3TC for 4 months
  early onset of OA / OA pathogenesis (Safranin O staining, OARSI quantification): abolished; also recorded: prevented early onset of OA
Cre control mice, 3TC 4 months
  tibial subchondral BV/TV: did not alter
Cre mice, 3TC 4 months
  connectivity density of subchondral bone: increased
  trabecular number of subchondral bone: increased
  trabecular separation of subchondral bone: decreased
miR-365 Tg mice, 3TC 4 months
  subchondral BMD: without decreasing
  connectivity density of subchondral bone: no effect
  tibial subchondral BV/TV: did not alter
  trabecular number of subchondral bone: no effect
  trabecular separation of subchondral bone: no effect
[1]
  Acan levels in articular cartilage: unchanged
  Adamts5 expression in articular cartilage: significantly inhibited; also recorded: significantly suppressed
  Alu expression in articular cartilage: significantly suppressed
  Col10 (Col10a1) expression in articular cartilage: significantly inhibited; also recorded: significantly suppressed
  Inf-α expression in articular cartilage: significantly inhibited
  Line-1 (Line-1-ORF2) expression in articular cartilage: significantly inhibited; also recorded: abolished; also recorded: significantly suppressed
  Sqstm1 expression in articular cartilage: inhibition was abolished; also recorded: significantly up-regulated
  Zc3hav1 (Zac3hav1) expression in articular cartilage: inhibition was abolished; also recorded: significantly up-regulated
[2]
  Dicer mRNA level in cartilage: inhibition was abolished
  Prkdc mRNA level in cartilage: inhibition was abolished
miR-365 Tg mice, oral 3TC for 4 months, RT-qPCR
  miR-365 expression in articular cartilage: abolished; also recorded: significantly suppressed
Mice treated with 3TC from 2-month old till 6-month old
  Ihh expression in vivo: suppresses only Line-1 but not Ihh
